Results published in PubChem BioAssay AID192 (DTP/NCI, 2004).
“And” between values parts separate entries of the source, which are not always exact repeats. Equal values may be shown once. Inconclusive results and toxic doses are left out.

Test system: BDF1 mice, B16 melanoma ip, median survival T/C
Experiment: NCI In Vivo Anticancer Drug Screen. Data for tumor model B16 Melanoma (intraperitoneal) in B6D2F1 (BDF1) mice
Details: endpoint: median survival time, higher = longer survival
How it was run: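 Compounds were tested in mice carrying transplantable tumors. Survival or tumor size was recorded, and each value is the treated-group measurement (T) divided by that of the vehicle-treated control group (C).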

[1] = dose: 25.0 mg/kg/injection, schedule: Q01DX009 (ip), vehicle: Klucel (hydroxypropylcellulose) (HPC)
[2] = dose: 50.0 mg/kg/injection, schedule: Q01DX009 (ip), vehicle: Klucel (hydroxypropylcellulose) (HPC)
[3] = dose: 100.0 mg/kg/injection, schedule: Q01DX009 (ip), vehicle: Klucel (hydroxypropylcellulose) (HPC)
[4] = dose: 50.0 mg/kg/injection, schedule: Q01DX009 (ip), vehicle: saline with Tween-80
[5] = dose: 100.0 mg/kg/injection, schedule: Q01DX009 (ip), vehicle: saline with Tween-80
[6] = dose: 200.0 mg/kg/injection, schedule: Q01DX009 (ip), vehicle: Klucel (hydroxypropylcellulose) (HPC)
[7] = dose: 400.0 mg/kg/injection, schedule: Q01DX009 (ip), vehicle: Klucel (hydroxypropylcellulose) (HPC)
[8] = dose: 25.0 mg/kg/injection, schedule: Q01DX009 (ip), vehicle: saline with Tween-80

O=C(/C=C/C(=O)Oc1ccc(Cl)cc1Cl)Oc1ccc(Cl)cc1Cl
T/C [1]: 100 % of control
T/C [2]: 91 % of control
T/C [3]: 88 % of control and 94 % of control

COc1cc2c3c(c1)/C(=N\NC(N)=O)CCN3CCC2
T/C (dose: 100.0 mg/kg/injection, schedule: Q04DX003 (ip), vehicle: Klucel (hydroxypropylcellulose) (HPC)): 97 % of control
T/C (dose: 200.0 mg/kg/injection, schedule: Q04DX003 (ip), vehicle: Klucel (hydroxypropylcellulose) (HPC)): 100 % of control
T/C (dose: 400.0 mg/kg/injection, schedule: Q04DX003 (ip), vehicle: Klucel (hydroxypropylcellulose) (HPC)): 100 % of control

CCN(CC)CCCNc1nccc2c(C)c3[nH]c4ccncc4c3cc12
T/C (dose: 0.37 mg/kg/injection, schedule: Q01DX009 (ip), vehicle: other): 115 % of control
T/C (dose: 0.38 mg/kg/injection, schedule: Q01DX009 (ip), vehicle: other): 160 % of control
T/C (dose: 0.75 mg/kg/injection, schedule: Q01DX009 (ip), vehicle: other): 171 % of control and 177 % of control
T/C (dose: 1.5 mg/kg/injection, schedule: Q01DX009 (ip), vehicle: other): 163 % of control and 218 % of control
T/C (dose: 3.0 mg/kg/injection, schedule: Q01DX009 (ip), vehicle: other): 163 % of control and 233 % of control
T/C (dose: 6.0 mg/kg/injection, schedule: Q01DX009 (ip), vehicle: other): 188 % of control and 213 % of control

Cc1cc(N(CCCl)CCCl)ccc1C=Nc1cccnc1
T/C [4]: 119 % of control
T/C [5]: 124 % of control

CN(C)c1ccc(C=C2c3ccccc3-c3ccccc32)cc1
T/C [3]: 106 % of control
T/C [6]: 103 % of control
T/C [7]: 106 % of control

CNC(=O)NCc1ccc(C(=O)NC(C)C)cc1
T/C [1]: 111 % of control
T/C [2]: 98 % of control
T/C [3]: 99 % of control
T/C [6]: 101 % of control
T/C [7]: 101 % of control

C=C1CCN(c2ccc(C)cc2)C1=O
T/C (dose: 4.0 mg/kg/injection, schedule: Q01DX009 (ip), vehicle: saline + alcohol): 91 % of control
T/C (dose: 8.0 mg/kg/injection, schedule: Q01DX009 (ip), vehicle: saline + alcohol): 88 % of control
T/C (dose: 16.0 mg/kg/injection, schedule: Q01DX009 (ip), vehicle: saline + alcohol): 94 % of control
T/C (dose: 32.0 mg/kg/injection, schedule: Q01DX009 (ip), vehicle: saline + alcohol): 89 % of control
T/C (dose: 64.0 mg/kg/injection, schedule: Q01DX009 (ip), vehicle: saline + alcohol): 104 % of control

O=C1c2cccnc2C(=O)c2c(O)ccc(O)c21
T/C [8]: 92 % of control
T/C [4]: 103 % of control
T/C [5]: 112 % of control
T/C (dose: 200.0 mg/kg/injection, schedule: Q01DX009 (ip), vehicle: saline with Tween-80): 89 % of control

NNC(=O)c1ccccc1O
T/C [8]: 100 % of control
T/C [4]: 95 % of control
T/C [5]: 95 % of control

O=C1NC(=O)C2C3C=CC(C3)C12 (stereo unspecified)
T/C (dose: 25.0 mg/kg/injection, schedule: Q01DX009 (ip), vehicle: saline): 105 % of control
T/C (dose: 50.0 mg/kg/injection, schedule: Q01DX009 (ip), vehicle: saline): 105 % of control
T/C (dose: 100.0 mg/kg/injection, schedule: Q01DX009 (ip), vehicle: saline): 113 % of control

CCNCCNc1ccc(NCCNCC)c2c1C(=O)c1ccccc1C2=O
T/C (dose: 8.0 mg/kg/injection, schedule: Q01DX009 (ip), vehicle: acid diluted with saline): 157 % of control
T/C (dose: 16.0 mg/kg/injection, schedule: Q01DX009 (ip), vehicle: acid diluted with saline): 158 % of control

Cc1cc(=NO)cc(C)n1O
T/C (dose: 25.0 mg/kg/injection, schedule: Q01DX009 (ip), vehicle: distilled water + alcohol): 100 % of control
T/C (dose: 50.0 mg/kg/injection, schedule: Q01DX009 (ip), vehicle: distilled water + alcohol): 98 % of control
T/C (dose: 200.0 mg/kg/injection, schedule: Q01DX009 (ip), vehicle: distilled water + alcohol): 86 % of control

C(=N\Nc1nn[nH]n1)/c1ccccc1
T/C (dose: 12.5 mg/kg/injection, schedule: Q01DX009 (ip), vehicle: saline with Tween-80): 92 % of control
T/C [8]: 96 % of control
T/C [4]: 89 % of control
T/C [5]: 90 % of control
